B1: ADCx19 (antibody, V domains shown)
VH: QVQLVQPGAEVVKPGASVKLSCKTSGYTFTSNWMHWVKQAPGQGLEWIGEIDPSDSYTNYNQNFQGKAKLTVDKSTSTAYMEVSSLRSDDTAVYYCARGSNPYYYAMDYWGQGTSVTVS
VL: EIVLTQSPAIMSASPGERVTMTCSASSGVNYMHWYQQKPGTSPRRWIYDTSKLASGVPARFSGSGSGTSYSLTISSMEPEDAATYYCHQRGSYTFGGGTKLEIK

Key:
[1] = test system: myelodysplastic syndromes (MDS) patients; settings: cited from earlier work
CD19 = target: T1, CD19 (human, UniProt P15391 20-556); assay: cell-based or functional assay
T1 sequence (looked up): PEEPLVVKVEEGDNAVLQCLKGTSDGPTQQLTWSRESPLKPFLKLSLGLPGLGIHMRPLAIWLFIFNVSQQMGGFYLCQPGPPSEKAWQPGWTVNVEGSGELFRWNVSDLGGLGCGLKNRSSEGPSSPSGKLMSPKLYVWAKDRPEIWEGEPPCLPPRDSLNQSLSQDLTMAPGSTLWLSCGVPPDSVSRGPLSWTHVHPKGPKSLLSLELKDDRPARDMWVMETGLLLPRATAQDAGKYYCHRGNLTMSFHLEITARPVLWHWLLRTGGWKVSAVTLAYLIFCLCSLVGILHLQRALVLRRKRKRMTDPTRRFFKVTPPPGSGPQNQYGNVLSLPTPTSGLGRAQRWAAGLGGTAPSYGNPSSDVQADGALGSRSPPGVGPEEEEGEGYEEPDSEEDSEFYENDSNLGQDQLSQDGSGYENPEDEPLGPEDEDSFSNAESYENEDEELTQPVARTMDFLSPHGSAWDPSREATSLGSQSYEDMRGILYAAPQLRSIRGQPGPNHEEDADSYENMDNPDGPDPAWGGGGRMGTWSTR

[2] = patients with a del(5q) chromosomal abnormality

Molecule	Adverse events ([1]; MDS patients)	transfusion independence or a reduction of at least 50% of pre-treatment RBC transfusion levels ([1]; non-del(5q) patients with confirmed low- and intermediate-1 risk)	complete cytogenetic remission [1, 2]	minor cytogenetic remission [1, 2] [%]	red blood cell (RBC) transfusion independence [1, 2]	Median IC50, MTT proliferation assay, 96 h exposure, 48 B-cell lymphoma lines (CD19) [pM]
Nc1cccc2c1CN(C1CCC(=O)NC1=O)C2=O (racemic) [Lenalidomide, 3-(7-amino-3-oxo-1H-isoindol-2-yl)piperidine-2,6-dione]	neutropenia and thrombocytopenia, pruritus, rash, diarrhea	43 % of patients	45 % of patients	28	67 % of patients	–
B1	–	–	–	–	–	4
